Results reported in publication PMC5431435, “A short artificial antimicrobial peptide shows potential to prevent or treat bone infections” (Scientific Reports, 2017).

Columns and labels:
S. aureus = assay: Effect of FCS on AMP2 activity; type: cell-based, Staphylococcus aureus; details: for bacterial growth: then 3 h with S. aureus, mean ± StD, n = 3
Description: In a further experiment the possible effect of serum on AMP activity was investigated. AMP2 (67 µg/ml) was preincubated for 2 hours at 37 °C with different concentrations of FCS and then added to S. aureus.
In addition, the influence of fetal calf serum (FCS, containing 17 g/l albumin; Biochrom, Germany) on AMP activity was determined by preincubating 67 µg/ml of the AMP2 with 0–10% FCS at 37 °C for 2 hours followed by incubation with S. aureus for 3 hours. The control group, without AMP, was FCS free (n = 3).

[1] = tested on: human primary osteoblast-like cells; type: cell-based
Description: (1) For the cytotoxicity test, 1 × 10^4 cells were seeded in 48-well plates with cultivation medium (CM) DMEM/Ham’s F-12 (D/H; Biochrom, Germany) + 10% fetal calf serum (FCS; Biochrom, Germany) + 1% penicillin/streptomycin (P/S; Biochrom, Germany) + 0.05 mM L-ascorbic-2 phosphate (L-Asc) + 0.05 mM β-glycerolphosphate (β-Glyc) and incubated overnight at 37 °C, 5% CO2 and 95% relative humidity. After adding the AMPs (3–542 µg/ml - depending on the AMP) or gentamicin (8–1024 µg/ml) in CM with 1% FCS, without Pen/Strep, cells were cultured for three days. Cell viability was determined with an AlamarBlue® assay before adding the AMPs and after 3 days. Alkaline phosphatase activity was measured on day 3.
Alamar Blue® (Biozol, Germany) was done according to the manufacturer’s instruction.

[2] = tested on: human primary osteoblast-like cells; assay: Scratch assay (cell migration); type: cell-based
Description: (3) The effect of AMP2 on cell migration was assessed. Human primary osteoblast-like cells were seeded into 24-well plates and cultured in cultivation media. After reaching confluence, medium was removed and a cross scratch was made using a 10 µl pipette tip using a modified protocol. […] Using ImageJ software (version 1.4.8.; https://imagej.nih.gov/ij/) the diameter of the scratch was measured and the closure over time calculated (n = 3).

S. epidermidis biofilms = assay: FISH of biofilm grown on polyurethane waver; type: cell-based, Staphylococcus epidermidis; details: n = 10 pictures
Description: Fluorescence in situ hybridization (FISH) was used to visualize the effect of the AMP2 on a biofilm. S. epidermidis (PIA 8400) biofilm was grown on 5 × 8 mm polyurethane (PU) waver (Epurex Films, Germany) in the incubator at 37 °C for 72 hours under aerobic conditions. After biofilm formation, medium was replaced by MH^++ medium containing different concentrations of the AMP2 (4 or 8 µg/ml) or phosphate buffered saline as control. After further 24 hours of incubation on a rotation shaker, waver were removed, fixed and embedded in methylmethacrylate (Technovit 8100, Kulzer, Germany) and sectioned as described elsewhere. To visualize the biofilm, samples were stained with nucleic acid stain DAPI and the Cy3-labeled Staphylococcus-specific FISH-probe STAPHY (5′[…]3′, biomers, Germany) as published, [52]. A nonsense probe NON338 labeled in Cy5 was used to exclude unspecific probe binding. After incubation in a dark, humid chamber for 2 hours at 50 °C, the slides were rinsed with sterile water, dried, and mounted using Vectashield mounting medium (Vector Laboratories, Burlingame, CA). Image analysis was done using an epifluorescence microscope (Axioplan 2; Carl Zeiss, Jena, Germany) equipped with narrow band filter sets (AHF Analysentechnik, Germany). Image acquisition was performed with an AxioCam MRm (Zeiss, Germany) making use of the AxioVision 4.4 software. Digital image analysis was performed with the daime software. Per group 10 pictures were randomly chosen and analyzed.

planktonic S. aureus = assay: MIC by isothermal microcalorimetry, planktonic bacteria; type: cell-based, Staphylococcus aureus; details: all three tested bouillons (MH++, MH+, MH−), heat flow 24 hours, n = 3
Description: Mueller-Hinton II bouillon with adjusted cations (MH^++; BBL, Germany), Mueller-Hinton bouillon with low cations (MH^+; with 3-4 mg/l Ca^2+ and 5-6 mg/l Mg^2+; Oxoid, Germany) and Mueller-Hinton bouillon without cations (MH^-; Merck, Germany). AMP2 concentrations of 2-33 μg/ml were tested with the three different bouillons and gentamicin concentrations of 0.125-2 μg/ml were analyzed with MH^++. Staphylococcus aureus (ATCC 29213, 300 μl with 10^5 cfu/ml) was added to each microcalorimetry glass ampoule (Waters; […] The ampoules were hermetically sealed and heat flow (W) was measured for 24 hours in the calorimeter TAM III (TA Instruments, USA). […] ROBU […], Germany) in MH^++ bouillon at 37 °C in an aerobe atmosphere for 24 hours. […] Beads were washed again and added to the glass ampoule with fresh MH^++ bouillon. The total heat (J) was measured for 48 hours in the calorimeter. A concentration, which inhibits minimum 90% of biofilm, can be defined as the minimal biofilm inhibitory concentration (MICB). All samples were tested with n = 6.

S. aureus (ATCC 29213) = assay: Zone of inhibition test of PDLLA-coated titanium wires; type: cell-based, Staphylococcus aureus; details: 10, 20, 30% w/w in poly(D,L-lactide) coating, n = 3
Description: Titanium wires (diameter 1 mm, Synthes, USA) were coated with Poly(D,L-lactide) (PDLLA, Boehringer Ingelheim, Germany) and incorporated AMP2 at three different concentrations: 10% w/w, 20% w/w, or 30% w/w. Gentamicin/PDLLA (10% w/w) or PDLLA coated wires served as control. Briefly, 100 mg PDLLA was solved in 1.5 ml ethyl acetate and the wires were coated in a dipping procedure. Details of the coating were described previously. Three nails of each group were placed on Mueller-Hinton agar plates plated with S. aureus (ATCC 29213) and the zone of inhibition (ZOI) was quantified after 1, 3, 7, and 14 days using ImageJ software.

[3] = tested on: human primary osteoblast-like cells; details: differentiation medium with 17 or 133 µg/ml AMP2, days 0, 7, 14, 21
Description: Confluent cells were cultured for 21 days in cultivation medium (CM), differentiation medium (DM: D/H + 10% FCS + 1% P/S + 0.5 mM L-Asc + 10 mM β-Glyc + 100 nM dexamethasone + 1.5 mM calcium chloride) and DM with a low (17 µg/ml) and a high (133 µg/ml) AMP2 concentration. Medium was changed every 3–4 days and fresh AMP was added by each change. Cells from two donors were used and the experiments were done in triplicate (n = 6).
Cells were incubated with 0.13% w/v 4-nitrophenyl phosphate disodium salt hexahydrate (Sigma-Aldrich, Germany) dissolved in 0.1 M AP-buffer (50 mM glycine, 100 mM Tris-Base, 1 mM MgCl2 in dH2O) at pH 10.5 for 30 min at 37 °C and absorbance was measured at 405 nm wavelength. […]
Cells were fixed with 3.7% v/v formalin for 10 min at RT and incubated with 0.5% w/v alizarin red (Sigma-Aldrich, Germany) in dH2O for 10 min at RT. Quantification was done by removing staining with 5% w/v SDS in 5 mM HCl and measuring absorbance at 570 nm.
RNA was isolated after 0, 7, 14 and 21 days in culture using the NucleoSpin RNA Kit (Macherey Nagel, Germany). […] For all primers, amplification efficiencies were analyzed and mean normalized expression (MNE) ratios were calculated using the ΔΔCt method with efficiency correction and normalization to the control (d0 of differentiation) and 18 S ribosomal RNA used as a reference gene.

[4] = 4 µg/ml AMP2, 24 h in MH++ on 72 h biofilm

Question: For KRRWRIWLV [AMP2], which bacterial growth (S. aureus; AMP2 67 µg/ml preincubated 2 h at 37 °C with 0% FCS) is on record?
Answer: Its bacterial growth is 7 ± 9 cfu/ml.

Question: And the bacterial growth (S. aureus; AMP2 67 µg/ml preincubated 2 h at 37 °C with 0.1% FCS)?
Answer: The bacterial growth was 37 ± 13 cfu/ml.

Question: What about the bacterial growth (S. aureus; AMP2 67 µg/ml preincubated 2 h at 37 °C with 1% FCS) of the same sequence?
Answer: Its bacterial growth is 553 ± 255 cfu/ml.

Question: And the bacterial growth (S. aureus; AMP2 67 µg/ml preincubated 2 h at 37 °C with 10% FCS)?
Answer: Its bacterial growth is 2,078 ± 540 cfu/ml.

Question: And the “bacterial growth compared to the group without AMP” value (S. aureus; AMP2 67 µg/ml, 10% FCS)?
Answer: Its value is “less than 2%”.

Question: What about the “concentrations with no negative effect on cell viability” value [1] of the same sequence?
Answer: Its value is < 267 µg/mL.

Question: And the “concentrations with significant inhibition of viability compared to the control group” value [1]?
Answer: Its value is ≥ 267 µg/mL.

Question: What about the “migration after 24 hours” value ([2]; 67 µg/ml AMP2) of the same sequence?
Answer: Its value is “reduced the migration of cells”.

Question: What about the “gap size after 48 hours” value ([2]; 67 µg/ml AMP2, 0.1% FCS, gap at 0 hours = 100%) of the same sequence?
Answer: Its value is 71%.

Question: What about the “migration after 24 hours” value ([2]; 133 µg/ml AMP2 (data not shown)) of the same sequence?
Answer: Its value is “no migration was observed”.

Question: And the “gap after 48 hours” value ([2]; 133 µg/ml AMP2, 0.1% FCS)?
Answer: The value was “still complete open”.

Question: And the “free-area after 24 hours” value ([2]; 4–33 µg/ml AMP2 (range also covers positive control and CM without AMP2), 0.1% FCS, gap at 0 hours = 100%)?
Answer: Its value is 50–66%.

Question: And the “cell-free area after 48 hours” value ([2]; AMP2 concentrations up to 33 µg/ml, 0.1% FCS, gap at 0 hours = 100%)?
Answer: Its value is 12–28%.

Question: And the “reduction of FISH-positive (Cy3) area” value (S. epidermidis biofilms; [4])?
Answer: Its value is 86%.

Question: What about the “reduction of the biofilm area (DAPI) compared to the untreated group” value (S. epidermidis biofilms; [4]) of the same sequence?
Answer: The value was “up to 76%”.

Question: What about the “reduction of FISH-positive (Cy3) area” value (S. epidermidis biofilms; 8 µg/ml AMP2, 24 h in MH++ on 72 h biofilm) of the same sequence?
Answer: The value was 90%.

Question: And the “MIC (calorimetry)” value (planktonic S. aureus)?
Answer: Its value is 8 µg/mL.

Question: What about the “Zone of Inhibition, activity of incorporated peptide” value (S. aureus (ATCC 29213)) of the same sequence?
Answer: Its value is “inhibited the growth of S. aureus in a dose dependent manner”.

Question: And the “effect on the osteogenic differentiation (expression of RUNX2, AP, Col1)” value [3]?
Answer: Its value is “no effect”.
